Reference: the NIST ThermoML archive (doi:10.1021/acs.jced.8b00547)
Numbers after ± are expanded uncertainties.

What was measured:
[1] = 101 kPa, Liquid; for speed of sound: Single path-length method; for mass density: Vibrating tube method
[2] = refractive index (Na D-line) (dimensionless); conditions: 101 kPa, Liquid, Standard Abbe refractometry
[3] = xn = mol fraction of the nth substance listed; conditions: 101 kPa, Liquid, x2 = 0; for speed of sound: Single path-length method; for mass density: Vibrating tube method
[4] = refractive index (Na D-line) (dimensionless); xn = mol fraction of the nth substance listed; conditions: 101 kPa, Liquid, Standard Abbe refractometry, x2 = 0

| SMILES | speed of sound ([1]; 298.15 K) [m/s] | mass density ([1]; 298.15 K) [kg/m3] | speed of sound ([1]; 308.15 K) [m/s] | mass density ([1]; 308.15 K) [kg/m3] | speed of sound ([1]; 318.15 K) [m/s] | mass density ([1]; 318.15 K) [kg/m3] | speed of sound ([1]; 328.15 K) [m/s] | mass density ([1]; 328.15 K) [kg/m3] | speed of sound ([1]; 338.15 K) [m/s] | mass density ([1]; 338.15 K) [kg/m3] | refractive index ([2]; 298.15 K) | refractive index ([2]; 308.15 K) | refractive index ([2]; 318.15 K) | refractive index ([2]; 328.15 K) | refractive index ([2]; 338.15 K) | speed of sound ([3]; 298.15 K) [m/s] | mass density ([3]; 298.15 K) [kg/m3] | speed of sound ([3]; 308.15 K) [m/s] | mass density ([3]; 308.15 K) [kg/m3] | speed of sound ([3]; 318.15 K) [m/s] | other results |
| --- | --- | --- | --- | --- | --- | --- | --- | --- | --- | --- | --- | --- | --- | --- | --- | --- | --- | --- | --- | --- | --- |
| CC(C)O [propan-2-ol] + CCCC(C)=O | – | – | – | – | – | – | – | – | – | – | – | – | – | – | – | 1138.5 ± 1.4 | 781.1 ± 0.41 | 1103.2 ± 1.4 | 772.51 ± 0.42 | 1068.1 ± 1.4 | mass density ([3]; 318.15 K): 763.51 ± 0.42 kg/m3; speed of sound ([3]; 328.15 K): 1032.6 ± 1.4 m/s; mass density ([3]; 328.15 K): 754.19 ± 0.42 kg/m3; speed of sound ([3]; 338.15 K): 997.33 ± 1.4 m/s; mass density ([3]; 338.15 K): 743.66 ± 0.42 kg/m3; refractive index ([4]; 298.15 K): 1.37522 ± 0.00049; refractive index ([4]; 308.15 K): 1.37083 ± 0.00049; refractive index ([4]; 318.15 K): 1.36622 ± 0.00049; refractive index ([4]; 328.15 K): 1.36146 ± 0.00049; refractive index ([4]; 338.15 K): 1.35637 ± 0.00049 |
| CCC(C)O (stereo not given) [butan-2-ol] + CCCC(C)=O | – | – | – | – | – | – | – | – | – | – | – | – | – | – | – | 1212 ± 1.4 | 802.4 ± 0.41 | 1175.8 ± 1.4 | 793.86 ± 0.41 | 1139.5 ± 1.4 | mass density ([3]; 318.15 K): 785.26 ± 0.41 kg/m3; speed of sound ([3]; 328.15 K): 1102.3 ± 1.4 m/s; mass density ([3]; 328.15 K): 775.73 ± 0.42 kg/m3; speed of sound ([3]; 338.15 K): 1064.5 ± 1.4 m/s; mass density ([3]; 338.15 K): 765.75 ± 0.42 kg/m3; refractive index ([4]; 298.15 K): 1.39474 ± 0.00049; refractive index ([4]; 308.15 K): 1.39011 ± 0.00049; refractive index ([4]; 318.15 K): 1.38547 ± 0.00049; refractive index ([4]; 328.15 K): 1.38022 ± 0.00049; refractive index ([4]; 338.15 K): 1.37621 ± 0.00049 |

Further lines, with some results ahead:

| speed of sound ([1]; 298.15 K) [m/s] | mass density ([1]; 298.15 K) [kg/m3] | speed of sound ([1]; 308.15 K) [m/s] | mass density ([1]; 308.15 K) [kg/m3] | speed of sound ([1]; 318.15 K) [m/s] | mass density ([1]; 318.15 K) [kg/m3] | speed of sound ([1]; 328.15 K) [m/s] | mass density ([1]; 328.15 K) [kg/m3] | speed of sound ([1]; 338.15 K) [m/s] | mass density ([1]; 338.15 K) [kg/m3] | refractive index ([2]; 298.15 K) | refractive index ([2]; 308.15 K) | refractive index ([2]; 318.15 K) | refractive index ([2]; 328.15 K) | refractive index ([2]; 338.15 K) | speed of sound ([3]; 298.15 K) [m/s] | mass density ([3]; 298.15 K) [kg/m3] | speed of sound ([3]; 308.15 K) [m/s] | mass density ([3]; 308.15 K) [kg/m3] | speed of sound ([3]; 318.15 K) [m/s] | SMILES | other results |
| --- | --- | --- | --- | --- | --- | --- | --- | --- | --- | --- | --- | --- | --- | --- | --- | --- | --- | --- | --- | --- | --- |
| 1138.5 ± 1.4 | 781.1 ± 0.41 | 1103.2 ± 1.4 | 772.51 ± 0.42 | 1068.1 ± 1.4 | 763.51 ± 0.42 | 1032.6 ± 1.4 | 754.19 ± 0.42 | 997.33 ± 1.4 | 743.66 ± 0.42 | 1.37522 ± 0.00049 | 1.37083 ± 0.00049 | 1.36622 ± 0.00049 | 1.36146 ± 0.00049 | 1.35637 ± 0.00049 | – | – | – | – | – | CC(C)O [propan-2-ol] | – |
| 1216 ± 1.4 | 802.09 ± 0.41 | 1174.4 ± 1.4 | 792.32 ± 0.41 | 1133.3 ± 1.4 | 782.44 ± 0.41 | 1093.6 ± 1.4 | 772.43 ± 0.42 | 1053.8 ± 1.4 | 762.27 ± 0.42 | 1.38782 ± 0.00049 | 1.38284 ± 0.00049 | 1.37782 ± 0.00049 | 1.3728 ± 0.00049 | 1.36764 ± 0.00049 | – | – | – | – | – | CCCC(C)=O [pentan-2-one] | – |
| 1212 ± 1.4 | 802.4 ± 0.41 | 1175.8 ± 1.4 | 793.86 ± 0.41 | 1139.5 ± 1.4 | 785.26 ± 0.41 | 1102.3 ± 1.4 | 775.73 ± 0.42 | 1064.5 ± 1.4 | 765.75 ± 0.42 | 1.39474 ± 0.00049 | 1.39011 ± 0.00049 | 1.38547 ± 0.00049 | 1.38022 ± 0.00049 | 1.37621 ± 0.00049 | – | – | – | – | – | CCC(C)O (stereo not given) [butan-2-ol] | – |
